System: recombinant NL4-3 virus (Renilla luciferase in nef, Gag P373S)
Assay: HIV Cell Culture Assay (luciferase reporter virus in MT-2 cells)
Type: cell-based
Conditions: NL43
Method: MT-2 cells and 293T cells were obtained from the NIH AIDS Research and Reference Reagent Program. MT-2 cells were propagated in RPMI 1640 media supplemented with 10% heat inactivated fetal bovine serum, […]. The 293T cells were propagated in DMEM media supplemented with 10% heat inactivated fetal bovine serum (FBS), 100 units/mL penicillin G and 100 μg/mL streptomycin. The proviral DNA clone of NL4-3 was obtained from the NIH AIDS Research and Reference Reagent Program. A recombinant NL4-3 virus, in which a section of the nef gene from NL4-3 was replaced with the Renilla luciferase gene, was used as a reference virus. In addition, residue Gag P373 was converted to P373S. Briefly, the recombinant virus was prepared by transfection of the altered proviral clone of NL4-3. Transfections were performed in 293T cells using LipofectAMINE PLUS from Invitrogen (Carlsbad, Calif.), according to manufacturer's instruction. The virus was titered in MT-2 cells using luciferase enzyme activity as a marker. Luciferase was quantitated using the Dual Luciferase kit from Promega (Madison, Wis.), with modifications to the manufacturer's protocol. The diluted Passive Lysis solution was pre-mixed with the re-suspended Luciferase Assay Reagent and the re-suspended Stop & Glo Substrate (2:1:1 ratio). Fifty (50) μL of the mixture was added to each aspirated well on assay plates and luciferase activity was measured immediately on a Wallac TriLux (Perkin-Elmer). Antiviral activities of inhibitors toward the recombinant virus were quantified by measuring luciferase activity in cells infected for 4-5 days with NLRluc recombinants in the presence serial dilutions of the inhibitor.

SMILES | EC50 [nM]
CC(C)C1=C2[C@H]3CC[C@@H]4[C@@]5(C)CC=C(C6=CCC(C(=O)O)CC6)C(C)(C)[C@@H]5CC[C@@]4(C)[C@]3(C)CC[C@@]2(C(=O)NCCN2CCOCC2)CC1=O (stereo partly drawn) [Example 1, 4-((3aR,5aR,5bR,7aR,11aS,11bR,13aS)-1-isopropyl-5a,5b,8,8,11a-pentamethyl-3a-((2-morpholinoethyl)carbamoyl)-2-oxo-3,3a,4,5,5a,5b,6,7,7a,8,11,11a,11b,12,13,13a-hexadecahydro-2H-cyclopenta[a]chrysen-9-yl)cyclohex-3-enecarboxylic acid] | 1.93
CC(C)C1=C2[C@H]3CC[C@@H]4[C@@]5(C)CC=C(C6=CC[C@](CF)(C(=O)O)CC6)C(C)(C)[C@@H]5CC[C@@]4(C)[C@]3(C)CC[C@@]2(N)CC1=O [Example 8, (S)-4-((3aR,5aR,5bR,7aR,11aS,11bR,13aS)-3a-amino-1-isopropyl-5a,5b,8,8,11a-pentamethyl-2-oxo-3,3a,4,5,5a,5b,6,7,7a,8,11,11a,11b,12,13,13a-hexadecahydro-2H-cyclopenta[a]chrysen-9-yl)-1-(fluoromethyl)cyclohex-3-enecarboxylic acid] | < 100
CC(C)C1=C2[C@H]3CC[C@@H]4[C@@]5(C)CC=C(C6=CCC(C(=O)O)CC6)C(C)(C)[C@@H]5CC[C@@]4(C)[C@]3(C)CC[C@@]2(C(=O)O)CC1=O (stereo partly drawn) [Example 4, (3aR,5aR,5bR,7aR,11aS,11bR,13aS)-9-(4-carboxycyclohex-1-en-1-yl)-1-isopropyl-5a,5b,8,8,11a-pentamethyl-2-oxo-3,3a,4,5,5a,5b,6,7,7a,8,11,11a,11b,12,13,13a-hexadecahydro-2H-cyclopenta[a]chrysene-3a-carboxylic acid] | < 100
CC(C)C1=C2[C@H]3CC[C@@H]4[C@@]5(C)CC=C(C6=CCC(C(=O)O)CC6)C(C)(C)[C@@H]5CC[C@@]4(C)[C@]3(C)CC[C@@]2(NCCN2CCS(=O)(=O)CC2)CC1=O (stereo partly drawn) [Example 6, 4-((3aR,5aR,5bR,7aR,11aS,11bR,13aS)-3a-((2-(1,1-dioxidothiomorpholino)ethyl)amino)-1-isopropyl-5a,5b,8,8,11a-pentamethyl-2-oxo-3,3a,4,5,5a,5b,6,7,7a,8,11,11a,11b,12,13,13a-hexadecahydro-2H-cyclopenta[a]chrysen-9-yl)cyclohex-3-enecarboxylic acid] | < 100
CC(C)C1=C2[C@H]3CC[C@@H]4[C@@]5(C)CC=C(C6=CC[C@](CF)(C(=O)O)CC6)C(C)(C)[C@@H]5CC[C@@]4(C)[C@]3(C)CC[C@@]2(NCCN2CCC(S(C)(=O)=O)CC2)CC1=O [Example 11, (S)-1-(fluoromethyl)-4-((3aR,5aR,5bR,7aR,11aS,11bR,13aS)-1-isopropyl-5a,5b,8,8,11a-pentamethyl-3a-((2-(4-(methylsulfonyl)piperidin-1-yl)ethyl)amino)-2-oxo-3,3a,4,5,5a,5b,6,7,7a,8,11,11a,11b,12,13,13a-hexadecahydro-2H-cyclopenta[a]chrysen-9-yl)cyclohex-3-enecarboxylic acid] | < 100

Source: patent US9969767B2, “Oxolupene derivatives” (priority 2014, dated 2018)
